Test results reported in article PMC11642016 (International Journal of Molecular Sciences, 2024).
Several values for one entry are separate records, joined by “and”; a condition that tells them apart may be missing. Identical values can stand only once. Like-named read-outs stand apart in the source and are kept apart here.

Columns and labels:
[1] = CellTiter-Glo luminescent cell viability assay, primary fibroblasts; conditions: human, primary skin fibroblasts (non-tumorous), Primer fibroblast Cell viability (% of controll), 72 h, dose–response, individual replicates
Method: (§1) Primary fibroblast cultures were prepared from human skin biopsies and maintained in DMEM supplemented with 10% FBS, 1% penicillin-streptomycin, and 1% MEM Non-Essential Amino Acids Solution (Thermo Fisher Scientific). […] All cell lines were cultured in a humidified atmosphere at 37 °C and 5% CO2, passaged twice a week, and the experiments were performed on cells between passage 5 and 15. The cell lines were routinely screened for the absence of mycoplasma infection (DAPI staining).
(§2) The effects of the synthesized compounds on cell viability were measured using the CellTiter-Glo® luminescent cell viability assay (Promega, Madison, WI, USA), according to the manufacturer’s instructions. Briefly, cells were seeded onto a flat-bottomed, white 96-well plate (BRANDplates, cat. no.: 781965)), with the following densities: PANC-1: 750 cells/well, Fadu: 2000 cells/well, primary fibroblasts: 2000 cells/well, HEK293T WT: 1000 cells/well, HEK293T CLPP^−/−: 2500 cells/well. After seeding, cells were incubated for a further 48 h before treatment. Cells were treated with the compounds for 72 h. Three concentrations (25.0 µM; 8.3 µM; 2.8 µM) were applied during the initial cell viability screening, while for the determination of dose–response curves, 1.5-fold serially diluted compound concentrations were applied (range: 26 µM–0.7 µM). After treatment, the luminescence signal was recorded using a microplate reader (BioTek Synergy 2 Multi-Mode Reader, BioTek, Winooski, VT, USA).
(§3) Data analysis was performed using GraphPad Prism 9.5.0 software (GraphPad Software, San Diego, CA, USA). […] The dose–response curves were generated by four-parameter nonlinear regression, and the IC50 values were determined as the means ± SEM of the best-fit values of 3 independent measurements. The R^2 values were consistently above 0.93, indicating a strong fit of the model to the experimental data (Supplementary S.89). […] Dunnett’s post hoc test was applied to adjust for multiple comparisons, minimizing the likelihood of false positive results. Assumptions for ANOVA, including normality (assessed via QQ plots) and homogeneity of variance (tested using the Brown–Forsythe test), were verified. The following significance levels were applied: * p < 0.05, ** p < 0.01, *** p < 0.001, **** p < 0.0001. […] The tumor selectivity of the compounds was quantitatively characterized by the selectivity index (SI). This parameter was calculated as the ratio of the average best-fit IC50 value for primary fibroblasts and the best-fit IC50 value for the corresponding tumor cells (PANC-1 or Fadu).

[2] = system: non-tumorous primary fibroblast cells; experiment: as above; conditions: for Primer fibroblast Cell viability (% of controll): dose–response, individual replicates; for IC50: Homo sapiens, Fibroblast
Method: as §1, §2, §3

[3] = system: PANC-1 cells; experiment: CellTiter-Glo luminescent cell viability assay, PANC-1
[4] = system: HEK293T CLPP^−/− cells; experiment: CellTiter-Glo cell viability assay, HEK293T CLPP−/− (ClpP dependence); conditions: 72 h; for HEK293T CLPP-/- Cell viability (% of controll): individual replicates;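 for all read-outs here: CellTiter-Glo luminescent signal read on a microplate reader once HEK293T CLPP−/− cells had been exposed to compounds for 72 h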
Method: as §1, §2, §3

**Q.** Which viability at 72 h, 3.4 µM ([1]; 3.4 μM) does the source give for CNCC#Cc1cccc(CN2C(=O)C3=C(CCN(Cc4ccc(-n5cc(-c6ccccc6)nn5)cc4)C3)N3CCN=C23)c1 [38b] here?
**A.** 112%

**Q.** And the viability at 72 h, 5.1 µM ([1]; 5.1 μM)?
**A.** 6%

**Q.** What about the viability at 72 h, 7.7 µM ([1]; 7.7 μM) of the same compound?
**A.** 0%

**Q.** What about the viability at 72 h, 17.3 µM ([1]; 17.3 μM) of the same compound?
**A.** 0%

**Q.** And the viability at 72 h, 26 µM ([1]; 26 μM)?
**A.** 0%

**Q.** And the “Primer fibroblast Cell viability (% of controll)” value ([2]; 0.7 μM, 72 h)?
**A.** 107 % of controll and 109 % of controll

**Q.** What about the “Primer fibroblast Cell viability (% of controll)” value ([2]; 1 μM, 72 h) of the same compound?
**A.** 117 % of controll and 101 % of controll

**Q.** And the “Primer fibroblast Cell viability (% of controll)” value ([2]; 1.5 μM, 72 h)?
**A.** 118 % of controll

**Q.** What about the “Primer fibroblast Cell viability (% of controll)” value ([2]; 2.3 μM, 72 h) of the same compound?
**A.** 107 % of controll

**Q.** What about the “Primer fibroblast Cell viability (% of controll)” value ([2]; 3.4 μM, 72 h) of the same compound?
**A.** 110 % of controll and 101 % of controll

**Q.** What about the “Primer fibroblast Cell viability (% of controll)” value ([2]; 5.1 μM, 72 h) of the same compound?
**A.** 5 % of controll and 8 % of controll

**Q.** And the “Primer fibroblast Cell viability (% of controll)” value ([2]; 7.7 μM, 72 h)?
**A.** 0 % of controll

**Q.** And the “Primer fibroblast Cell viability (% of controll)” value ([2]; 17.3 μM, 72 h)?
**A.** 0 % of controll

**Q.** And the “Primer fibroblast Cell viability (% of controll)” value ([2]; 26 μM, 72 h)?
**A.** 0 % of controll

**Q.** And the IC50 ([2]; 72 h, read-out: IC50 Value ± SEM Primary Fibroblast, 72 h treatment, best-fit values, n = 3)?
**A.** 4400 ± 230 nM

**Q.** What about the IC50 ([2]; read-out: Primary fibroblast IC50 values, Mean, mean of independently fitted replicate IC50 values (Supplement S.6), ONC201 value mathematically estimated from inflection point) of the same compound?
**A.** 4450 nM

**Q.** What about the “PANC-1 Cell viability (% of controll)” value ([3]; 0.7 μM, 72 h, dose–response, individual replicates) of the same compound?
**A.** 103 % of controll

**Q.** What about the “PANC-1 Cell viability (% of controll)” value ([3]; 1 μM, 72 h, dose–response, individual replicates) of the same compound?
**A.** 108 % of controll

**Q.** What about the “PANC-1 Cell viability (% of controll)” value ([3]; 1.5 μM, 72 h, dose–response, individual replicates) of the same compound?
**A.** 107 % of controll and 116 % of controll

**Q.** And the “PANC-1 Cell viability (% of controll)” value ([3]; 2.3 μM, 72 h, dose–response, individual replicates)?
**A.** 79 % of controll and 98 % of controll

**Q.** What about the “PANC-1 Cell viability (% of controll)” value ([3]; 3.4 μM, 72 h, dose–response, individual replicates) of the same compound?
**A.** 0 % of controll and 1 % of controll

**Q.** What about the “PANC-1 Cell viability (% of controll)” value ([3]; 5.1 μM, 72 h, dose–response, individual replicates) of the same compound?
**A.** 0 % of controll

**Q.** What about the “PANC-1 Cell viability (% of controll)” value ([3]; 7.7 μM, 72 h, dose–response, individual replicates) of the same compound?
**A.** 0 % of controll

**Q.** And the “PANC-1 Cell viability (% of controll)” value ([3]; 17.3 μM, 72 h, dose–response, individual replicates)?
**A.** 0 % of controll

**Q.** What about the “PANC-1 Cell viability (% of controll)” value ([3]; 26 μM, 72 h, dose–response, individual replicates) of the same compound?
**A.** 0 % of controll

**Q.** What about the viability at 2.8 µM ([3]; Homo sapiens, PANC-1, 72 h, read-out: Cell Viability (% of Control) 2.8 µM, PANC-1, 2.8 µM, 72 h, second-set screening, mean ± SD, n = 2) of the same compound?
**A.** 6 ± 6%

**Q.** What about the viability at 8.3 µM ([3]; Homo sapiens, PANC-1, 72 h, read-out: Cell Viability (% of Control) 8.3 µM, PANC-1, 8.3 µM, 72 h, second-set screening, mean ± SD, n = 2) of the same compound?
**A.** 0%

**Q.** What about the viability at 25 µM ([3]; Homo sapiens, PANC-1, 72 h, read-out: Cell Viability (% of Control) 25 µM, PANC-1, 25 µM, 72 h, second-set screening, mean ± SD, n = 2) of the same compound?
**A.** 0%

**Q.** What about the IC50 ([3]; Homo sapiens, PANC-1, 72 h, read-out: IC50 Value ± SEM PANC-1, 72 h treatment, best-fit values, n = 3) of the same compound?
**A.** 2500 ± 230 nM

**Q.** What about the viability at 0.7 µM ([3]; Homo sapiens, PANC-1, 72 h, read-out: PANC-1 Cell viability (% of controll), 0.7 μM, 72 h, dose–response, individual replicates) of the same compound?
**A.** 110%

**Q.** What about the viability at 1 µM ([3]; Homo sapiens, PANC-1, 72 h, read-out: PANC-1 Cell viability (% of controll), 1 μM, 72 h, dose–response, individual replicates) of the same compound?
**A.** 110%

**Q.** What about the viability at 1.5 µM ([3]; Homo sapiens, PANC-1, 72 h, read-out: PANC-1 Cell viability (% of controll), 1.5 μM, 72 h, dose–response, individual replicates) of the same compound?
**A.** 109%

**Q.** What about the viability at 2.3 µM ([3]; Homo sapiens, PANC-1, 72 h, read-out: PANC-1 Cell viability (% of controll), 2.3 μM, 72 h, dose–response, individual replicates) of the same compound?
**A.** 81%

**Q.** And the viability at 5.1 µM ([3]; Homo sapiens, PANC-1, 72 h, read-out: PANC-1 Cell viability (% of controll), 5.1 μM, 72 h, dose–response, individual replicates)?
**A.** 0%

**Q.** What about the viability at 7.7 µM ([3]; Homo sapiens, PANC-1, 72 h, read-out: PANC-1 Cell viability (% of controll), 7.7 μM, 72 h, dose–response, individual replicates) of the same compound?
**A.** 0%

**Q.** What about the viability at 17.3 µM ([3]; Homo sapiens, PANC-1, 72 h, read-out: PANC-1 Cell viability (% of controll), 17.3 μM, 72 h, dose–response, individual replicates) of the same compound?
**A.** 0%

**Q.** And the viability at 26 µM ([3]; Homo sapiens, PANC-1, 72 h, read-out: PANC-1 Cell viability (% of controll), 26 μM, 72 h, dose–response, individual replicates)?
**A.** 0%

**Q.** And the IC50 ([3]; Homo sapiens, PANC-1, read-out: PANC-1 IC50 values, Mean, mean of independently fitted replicate IC50 values (Supplement S.6))?
**A.** 2450 nM

**Q.** And the “Selectivity Index (SI) Fibroblast/PANC-1” value ([3]; ratio of mean best-fit IC50 for primary fibroblasts and best-fit IC50 for PANC-1)?
**A.** 1.8

**Q.** And the “HEK293T CLPP-/- Cell viability (% of controll)” value ([4]; 0.4 μM, dose–response, listed as CZT457, 0.4 µM)?
**A.** 116 % of controll and 114 % of controll and 119 % of controll

**Q.** What about the “HEK293T CLPP-/- Cell viability (% of controll)” value ([4]; 0.6 μM, dose–response, listed as CZT457, 0.6 µM) of the same compound?
**A.** 112 % of controll (2×) and 110 % of controll

**Q.** And the “HEK293T CLPP-/- Cell viability (% of controll)” value ([4]; 1.0 μM, dose–response, listed as CZT457, 1 µM)?
**A.** 112 % of controll and 111 % of controll and 115 % of controll

**Q.** What about the “HEK293T CLPP-/- Cell viability (% of controll)” value ([4]; 1.6 μM, dose–response, listed as CZT457, 1.6 µM) of the same compound?
**A.** 107 % of controll and 101 % of controll and 103 % of controll

**Q.** What about the “HEK293T CLPP-/- Cell viability (% of controll)” value ([4]; 2.5 μM, dose–response, listed as CZT457, 2.5 µM) of the same compound?
**A.** 25 % of controll and 33 % of controll and 32 % of controll and 13 % of controll

**Q.** What about the “HEK293T CLPP-/- Cell viability (% of controll)” value ([4]; 4.0 μM, dose–response, listed as CZT457, 4 µM) of the same compound?
**A.** 1 % of controll and 0 % of controll

**Q.** And the “HEK293T CLPP-/- Cell viability (% of controll)” value ([4]; 6.4 μM, dose–response)?
**A.** 0 % of controll

**Q.** And the “HEK293T CLPP-/- Cell viability (% of controll)” value ([4]; 16.25 μM, dose–response)?
**A.** 0 % of controll

**Q.** And the “HEK293T CLPP-/- Cell viability (% of controll)” value ([4]; 26 μM, dose–response)?
**A.** 0 % of controll

**Q.** And the IC50 ([4]; Homo sapiens, HEK-293T, read-out: IC50 (µM) HEK293T CLPP^−/−)?
**A.** 2.1 ± 0.03 µM

**Q.** And the “effect on the viability of HEK293T CLPP^−/− cells” value ([4]; dose–response, compared with HEK293T WT)?
**A.** maintained
